Experimental data as given in ChEMBL document CHEMBL1129046, “Structure-activity relationships of the antimalarial agent artemisinin. 4. Effect of substitution at C-3” (1996).

Assays:
Plasmodium falciparum [1] = test: Relative in vitro activity against drug-resistant Plasmodium falciparum W-6; type: functional
Plasmodium falciparum [2] = test: Relative in vitro activity against drug-resistant Plasmodium falciparum D6; type: functional

SMILES	Relative activity (Plasmodium falciparum [1])	Relative activity (Plasmodium falciparum [2])
CCCC[C@H]1C(=O)O[C@@H]2O[C@@]3(CC)CC[C@H]4[C@H](C)CC[C@@H]1[C@@]24OO3	257	184
CCCC[C@H]1C(=O)O[C@@H]2O[C@@]3(CCCc4ccc(Cl)cc4)CC[C@H]4[C@H](C)CC[C@@H]1[C@@]24OO3	53	43
CCC[C@@]12CC[C@H]3[C@H](C)CC[C@H]4CC(=O)O[C@H](O1)[C@]43OO2	673	2102
CCOC(=O)CC[C@@]12CC[C@H]3[C@H](C)CC[C@H]4CC(=O)O[C@H](O1)[C@]43OO2	232	232
C[C@@H]1CC[C@H]2CC(=O)O[C@@H]3O[C@@]4(CCCCc5ccccc5)CC[C@@H]1[C@@]23OO4	281	220
CC[C@@]12CC[C@H]3[C@H](C)CC[C@H]4CC(=O)O[C@H](O1)[C@]43OO2	112	88
CCCC[C@H]1C(=O)O[C@@H]2O[C@@]3(CCCC)CC[C@H]4[C@H](C)CC[C@@H]1[C@@]24OO3	33	28
CCCC[C@H]1C(=O)O[C@@H]2O[C@@]3(CCCCc4ccccc4)CC[C@H]4[C@H](C)CC[C@@H]1[C@@]24OO3	48	39
C[C@@H]1CC[C@H]2CC(=O)O[C@@H]3O[C@@]4(CCc5ccccc5)CC[C@@H]1[C@@]23OO4	1	3
CCCC[C@H]1C(=O)O[C@@H]2O[C@@]3(CCc4ccccc4)CC[C@H]4[C@H](C)CC[C@@H]1[C@@]24OO3	1	1
CCCC[C@H]1C(=O)O[C@@H]2O[C@@]3(CCC(=O)OCC)CC[C@H]4[C@H](C)CC[C@@H]1[C@@]24OO3	2285	1382
CC(C)C[C@@]12CC[C@H]3[C@H](C)CC[C@H]4CC(=O)O[C@H](O1)[C@]43OO2	45	53
C[C@@H]1CC[C@H]2CC(=O)O[C@@H]3O[C@@]4(CCCc5ccc(Cl)cc5)CC[C@@H]1[C@@]23OO4	127	114
CCCC[C@@]12CC[C@H]3[C@H](C)CC[C@H]4CC(=O)O[C@H](O1)[C@]43OO2	18	20
C[C@@H]1CC[C@H]2[C@@H](C)C(=O)O[C@@H]3O[C@@]4(C)CC[C@@H]1[C@]32OO4 [ARTEMISININ]	100	100
